Reference: ChEMBL document CHEMBL5143515, “Identification of new halogen-containing 2,4-diphenyl indenopyridin-5-one derivative as a boosting agent for the anticancer responses of clinically available topoisomerase inhibitors” (Eur J Med Chem, 2022)
Activity calls are given as the source filed them. The rule behind the calls is not given here.

Tests used:
[1] = molecular target: T1, DNA topoisomerase 1 (Homo sapiens) (UniProt P11387); assay: Inhibition of recombinant human topoisomerase 1 assessed as relaxation of supercoiled plasmid pBR322 DNA at 20 uM by agarose gel electrophoresis (reference value: 40.4%)
T1 sequence (whole entry): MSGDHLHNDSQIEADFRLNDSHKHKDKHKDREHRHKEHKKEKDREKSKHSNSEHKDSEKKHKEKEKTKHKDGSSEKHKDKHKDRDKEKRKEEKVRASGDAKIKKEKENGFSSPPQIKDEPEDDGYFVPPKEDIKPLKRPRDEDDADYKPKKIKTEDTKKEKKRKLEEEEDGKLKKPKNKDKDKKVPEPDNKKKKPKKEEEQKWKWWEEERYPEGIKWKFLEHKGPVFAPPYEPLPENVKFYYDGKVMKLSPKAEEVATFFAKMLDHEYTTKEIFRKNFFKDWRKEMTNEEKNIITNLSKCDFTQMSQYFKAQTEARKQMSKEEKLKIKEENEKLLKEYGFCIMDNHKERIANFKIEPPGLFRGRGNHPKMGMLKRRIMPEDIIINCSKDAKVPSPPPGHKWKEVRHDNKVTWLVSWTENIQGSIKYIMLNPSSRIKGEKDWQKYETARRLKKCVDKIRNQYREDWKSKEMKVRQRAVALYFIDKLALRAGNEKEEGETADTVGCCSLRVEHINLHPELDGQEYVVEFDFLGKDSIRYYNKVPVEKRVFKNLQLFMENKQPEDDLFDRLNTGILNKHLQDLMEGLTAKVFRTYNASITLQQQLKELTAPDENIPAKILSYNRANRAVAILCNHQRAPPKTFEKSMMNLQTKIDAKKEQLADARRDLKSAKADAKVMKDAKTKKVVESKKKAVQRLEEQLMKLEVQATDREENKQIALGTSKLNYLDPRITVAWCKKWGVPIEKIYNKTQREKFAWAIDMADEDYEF

Calf thymus DNA = assay: Binding affinity to calf thymus DNA assessed as DNA intercalation at 5 to 40 uM by fluorescence based EtBr-displacement assay; type: nucleic-acid assay; conditions: Bos taurus; dose 5-40 µM
HCT-15 [2] = assay: Synergistic antiproliferative activity against human HCT-15 cells at 5 uM in presence of 1 nM camptothecin after 72 hrs by WST-1 assay; type: functional, cell-based
HCT-15 [3] = assay: Induction of apoptosis in human HCT-15 cells assessed as change in c-PARP level at 2 to 5 uM in presence of 1 nM camptothecin and measured by Western blot analysis; type: functional, cell-based; conditions: dose 2-5 µM
HCT-15 [4] = assay: Induction of apoptosis in human HCT-15 cells assessed as change in c-caspase 7 level at 2 to 5 uM in presence of 1 nM camptothecin and measured by Western blot analysis; type: functional, cell-based; conditions: dose 2-5 µM
HCT-15 [5] = assay: Induction of apoptosis in human HCT-15 cells assessed as change in c-caspase 7 level at 2 to 5 uM in presence of 0.2 uM etoposide and measured by Western blot analysis; type: functional, cell-based; conditions: dose 2-5 µM
[6] = Genotoxicity in human HCT-15 cells assessed as production of gamma-H2AX at 2 to 5 uM and measured by western blot analysis; type: toxicity, cell-based; conditions: hct-15, 5 µM, dose 2-5 µM
[7] = Genotoxicity in human HCT-15 cells assessed as production of Ub1-gamma-H2AX at 2 to 5 uM and measured in presence of 0.2 uM etoposide by western blot analysis; type: toxicity, cell-based; conditions: hct-15, 5 µM, dose 2-5 µM
[8] = Genotoxicity in human HCT-15 cells assessed as production of gamma-H2AX at 2 to 5 uM and measured in presence of 1 nM camptothecin by western blot analysis; type: toxicity, cell-based; conditions: hct-15, 5 µM, dose 2-5 µM
[9] = Toxicity in mouse assessed as reduction in number of white blood cells at 4 mg/kg; type: organism-based; conditions: in vivo
[10] = Toxicity in mouse assessed as reduction in hemoglobin level at 4 mg/kg administered in combination with 2 mg/kg etoposide; type: organism-based; conditions: in vivo
[11] = Toxicity in mouse assessed as increase in mean corpuscular volume of RBC at 4 mg/kg administered in combination with 2 mg/kg etoposide; type: organism-based, Erythrocyte; conditions: in vivo

O=C1c2ccccc2-c2nc(-c3ccc(Br)cc3)cc(-c3ccccc3)c21
inhibition [1]: 1.8% | Activity (Calf thymus DNA): Active | Activity (HCT-15 [2]): Active | Activity (HCT-15 [3]): Active | Activity (HCT-15 [4]): Active | Activity (HCT-15 [5]): Active | Activity [6]: Non-Toxic | Activity [7]: Non-Toxic | Activity [8]: Non-Toxic | Activity [9]: Non-Toxic | Activity [10]: Non-Toxic | Activity [11]: Non-Toxic
